This is an account of results in US10399949B2, “NK1 receptor antagonist” (KISSEI PHARMACEUTICAL CO., LTD., priority 2015, dated 2019).

Series [1] has as its target T1, human NK1 receptor (Homo sapiens, UniProt P25103).
T1 construct: expressed in transfected cells; host or cells: 293T cells (RIKEN), transient transfection with pcDNA3.1(-) plasmid
Nature of the series: Affinity for human NK1 receptor (125I-substance P receptor binding test, membrane fraction). Conditions: membrane fraction of human NK1 receptor-expressing 293T cells, room temperature 60 minutes, read-out: pIC50 (inverse logarithm of the concentration required for 50% inhibition of 125I-substance P binding) (converted). As for the experimental part:
Affinity for Human NK1 Receptor
(3) Measurement of Binding Affinity to Human NK1 Receptor
(3-1) Preparation of Membrane Fraction from Human NK1 Receptor-Expressing Cells
Human NK1 receptor-expressing cells were prepared in a 175 cm^2 culture flask (Nippon Becton Dickinson). The formation of a complex of the human NK1 receptor expression plasmid and Lipofectamine 2000 was performed by calculating the culture area ratio and increasing the scale of the method described in the above 2-4 by the ratio. The human NK1 receptor-expressing cells were collected in a buffer solution for the membrane fraction preparation (50 mM Tris (Wako Pure Chemical), 120 mM sodium chloride (Wako Pure Chemical Industries), 5 mM potassium chloride (Wako Pure Chemical Industries), 1 mM ethylenediaminetetraacetic acid (Sigma), 0.002 mg/mL chymostatin (Peptide Institute), 0.04 mg/bacitracin (Wako Pure Chemical Industries), 0.005 mg/mL phosphoramidon (Peptide Institute) and 0.5 mM phenylmethylsulfonyl fluoride (Wako Pure Chemical Industries), pH7.4) and centrifuged at 1,880 g for 10 minutes, and the cell sediment was suspended in the buffer solution for the membrane fraction preparation. After freezing and thawing the cells once, the cells were homogenized using a Dounce-type homogenizer (cooled on ice, 1000 rpm, 20 times). The homogenized cell suspension was centrifuged at 20,000 rpm for 10 minutes, and the supernatant was removed to obtain cell sediment. The cell sediment was suspended again in the buffer solution for the membrane fraction preparation and homogenized using a Dounce-type homogenizer (cooled on ice, 1000 rpm, 30 times). The cell suspension was centrifuged at 20,000 rpm for 10 minutes, and the supernatant was removed to obtain cell sediment. The same homogenization and centrifugation were repeated again, and final cell sediment was obtained. The final cell sediment was suspended in a buffer solution for the receptor binding test (50 mM Tris (Wako Pure Chemical Industries), 3 mM manganese chloride (Wako Pure Chemical Industries), 0.002 mg/mL chymostatin (Peptide Institute), 0.04 mg/bacitracin (Wako Pure Chemical Industries) and 0.02% bovine serum albumin (Sigma), pH 7.4), and the protein concentration was measured using BCA Protein Assay Kit (Pierce).
(3-2) Receptor Binding Test
The buffer solution for the receptor binding test was dispensed to the wells of a 96-well assay plate (Greiner) at 22.5 μL/well. DMSO solutions of a test compound, which were prepared at an 80-time higher concentration using 100% dimethyl sulfoxide (DMSO), were added to the wells at 2.5 μL/well (final concentrations of 1 nM to 100 nM), and the solutions were mixed. As a radiolabeled ligand, ^125I-substance P (Substance P, [^125I]Tyr^8-, PerkinElmer) was used. ^125I-substance P was diluted with the buffer solution for the receptor binding test to a concentration resulting in […] and added to the 96-well assay plate, and the solutions were mixed. The membrane fraction prepared from the human NK1 receptor-expressing cells was diluted with the buffer solution for the receptor binding test to a concentration resulting in 8 to 10 μg/well, suspended until the suspension became in such a homogenous state that the suspension could flow through a 27G injection needle smoothly and then added to the 96-well assay plate at 150 μL/well. Then, the plate was incubated at room temperature for 60 minutes while shaking the plate. […]

A short description of series [2]: Measurement of drug concentrations in the brain after foot-tapping test. As to conditions: male gerbil; 0.3 mg/kg from the jugular vein; brain extracted after foot-tapping was finished; LC/MS. Format: in vivo. The protocol: A male gerbil (Japan SLC) was anesthetized with isoflurane, and 0.3 mg/kg of a test compound was administered from the jugular vein. After 4 hours, GR73632 (5 pmol/5 μL saline), which is an NK1 receptor agonist, was administered into the cerebral ventricle at the part 1 mm lateral to and 4.5 mm below the bregma in the head, under anesthesia with isoflurane. After the administration, the gerbil was moved to an observation cage, and the foot-tapping period during 30 minutes after the recovery of the righting reflex was measured. As a comparative example, aprepitant, which is an NK1 receptor antagonist, was tested in the same manner. The foot-tapping inhibition rate (%) of each test compound was calculated by the following equation. Foot-tapping inhibition rate (%)={1−(Foot-tapping period when test compound was administered)/(Foot-tapping period when solvent was administered)}×100 (2) Measurement of Drug Concentrations
After foot-tapping was finished, laparotomy was performed immediately under anesthesia with ether, and a blood sample was taken from the abdominal vena cava. At the same time, the brain was extracted. Through a quantitative analysis using liquid chromatography-mass spectrometry (LC/MS), the concentrations of the test compound in the plasma and the brain were measured.
In the table, Ex. No. means the Example number. […]

T1 sequence (P25103 whole entry): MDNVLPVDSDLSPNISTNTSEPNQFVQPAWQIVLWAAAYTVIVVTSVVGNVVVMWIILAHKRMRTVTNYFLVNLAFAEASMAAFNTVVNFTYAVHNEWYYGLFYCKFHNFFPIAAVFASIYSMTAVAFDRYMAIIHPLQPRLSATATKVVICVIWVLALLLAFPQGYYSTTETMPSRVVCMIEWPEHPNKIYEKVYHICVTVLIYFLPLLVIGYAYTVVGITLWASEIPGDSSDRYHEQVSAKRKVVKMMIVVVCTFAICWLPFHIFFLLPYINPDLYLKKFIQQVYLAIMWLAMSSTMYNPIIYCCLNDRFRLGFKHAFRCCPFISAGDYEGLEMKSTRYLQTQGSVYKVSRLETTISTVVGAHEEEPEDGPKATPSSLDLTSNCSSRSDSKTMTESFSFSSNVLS

With `Cc1cc(F)ccc1[C@H]1CN(C[C@H]2CC[C@@H](CC(=O)O)CC2)CCN1C(=O)N(C)[C@H](C)c1cc(C(F)(F)F)cc(C(F)(F)F)c1` [Example 4, cis-{4-[(S)-4-{[(R)-1-(3,5-Bistrifluoromethylphenyl)ethyl]methylcarbamoyl}-3-(4-fluoro-2-methylphenyl)piperazin-1-ylmethyl]cyclohexyl}acetic acid], the IC50 in series [1] is 0.851 nM. In addition, the “Conc. (nM) (drug concentration in the brain)” value in series [2] amounted to 162 nM.
Turning to `Cc1cc(F)ccc1[C@H]1CN(C[C@H]2CC[C@H](CC(=O)O)CC2)CCN1C(=O)N(C)[C@H](C)c1cc(C(F)(F)F)cc(C(F)(F)F)c1` [Example 5, trans-{4-[(S)-4-{[(R)-1-(3,5-Bistrifluoromethylphenyl)ethyl]methylcarbamoyl}-3-(4-fluoro-2-methylphenyl)piperazin-1-ylmethyl]cyclohexyl}acetic acid], the IC50 in series [1] was 0.851 nM. Besides, the “Conc. (nM) (drug concentration in the brain)” value in series [2] was determined as 181 nM.
